In patent US10947213B1 (Merck Patent GmbH, priority 2015, dated 2021):
Counter-ions that a name gives are not always drawn.

Molecular target: T1, TLR7/NFKb HEK cells (Homo sapiens, UniProt Q9NYK1)
T1 construct: expressed in transfected cells; host or cells: HEK cells (TLR7/NFKb reporter line)
T1 sequence (Q9NYK1 27-1049): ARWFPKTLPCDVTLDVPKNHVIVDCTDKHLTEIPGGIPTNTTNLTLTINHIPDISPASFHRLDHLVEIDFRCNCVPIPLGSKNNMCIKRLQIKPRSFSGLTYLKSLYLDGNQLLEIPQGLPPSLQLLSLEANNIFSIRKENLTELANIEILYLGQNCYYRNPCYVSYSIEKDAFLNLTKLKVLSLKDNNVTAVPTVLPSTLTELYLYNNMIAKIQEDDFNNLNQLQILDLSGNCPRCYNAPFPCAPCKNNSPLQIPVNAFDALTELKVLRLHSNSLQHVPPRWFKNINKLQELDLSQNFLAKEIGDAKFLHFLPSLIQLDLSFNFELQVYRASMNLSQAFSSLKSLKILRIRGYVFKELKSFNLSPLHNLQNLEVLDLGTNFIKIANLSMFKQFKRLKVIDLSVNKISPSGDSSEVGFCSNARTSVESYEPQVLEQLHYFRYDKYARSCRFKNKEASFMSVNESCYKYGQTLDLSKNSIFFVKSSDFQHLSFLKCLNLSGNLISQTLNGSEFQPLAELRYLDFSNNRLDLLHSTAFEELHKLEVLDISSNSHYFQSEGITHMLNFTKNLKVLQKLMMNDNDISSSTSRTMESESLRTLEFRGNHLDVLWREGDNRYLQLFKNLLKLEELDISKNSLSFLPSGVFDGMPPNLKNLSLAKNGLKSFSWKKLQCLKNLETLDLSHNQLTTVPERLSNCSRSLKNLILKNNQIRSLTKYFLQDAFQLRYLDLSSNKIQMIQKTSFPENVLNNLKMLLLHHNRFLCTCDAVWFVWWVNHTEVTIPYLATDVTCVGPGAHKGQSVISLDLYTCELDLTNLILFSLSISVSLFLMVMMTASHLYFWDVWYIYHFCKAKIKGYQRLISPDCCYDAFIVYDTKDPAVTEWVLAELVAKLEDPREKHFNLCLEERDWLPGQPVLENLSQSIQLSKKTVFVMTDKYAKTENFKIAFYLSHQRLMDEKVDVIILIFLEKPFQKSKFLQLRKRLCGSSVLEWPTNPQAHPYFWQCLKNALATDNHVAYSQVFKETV
Test: HEK Cell Assay (TLR7/NFKb reporter, Steady-Glo luciferase readout)
Type: cell-based
Settings: 30 min compound preincubation, then R*48 agonist for 5 hours, read-out: Potency
Procedure: Example 142: HEK Cell Assay
Into 384 CulturePlates (Corning 3707) was placed 5000 c/w of TLR7/NFKb HEK cells in 30 uL DMEM without Phenil red (gibco #31053) and 10% i.a. FCS and 2 mM L-ZGLutamin. The cells were incubated for 24 h at 37° C., 10% carbon dioxide and 90% relative humidity. 3 uL of controls, standards, and compounds were dispensed into wells, incubated for 30 min then 3 uL of R*48 agonist in 20 mM Hepes was added. After incubation for 5 hours, they were allowed to stand at room temperature for 15 min. To this was added 10 uL of Steady-Glo substrate reagent and shake assay plate for 5 min at 1500 rpm. The assay plate was allowed to sit for 30 min at room temperature and then the plate was read on EnVision.

N#Cc1ccc(N2CC(NC3CCC(O)CC3)CC(C(F)(F)F)C2)c2nccnc12 (single isomer, unassigned) [Compound 91, cis,cis-8-(3-((4-hydroxycyclohexyl)amino)-5-(trifluoromethyl)piperidin-1-yl)quinoxaline-5-carbonitrile] and C[C@H]1C[C@@H](NC2CCC(O)CC2)CN(c2ccc(C#N)c3nccnc23)C1 (single isomer, unassigned) [Compound 135] cannot be ordered by IC50: under 1000 nM for the first, under 1000 nM for the second.

First: N#Cc1ccc(N2CC(NC3CCC(O)CC3)CC(C(F)(F)F)C2)c2nccnc12 (single isomer, unassigned) [Compound 92, cis,trans-8-(-3-((4-hydroxycyclohexyl)amino)-5-(trifluoromethyl)piperidin-1-yl)quinoxaline-5-carbonitrile]
Second: C[C@H]1C[C@@H](NC2CCC(O)CC2)CN(c2ccc(C#N)c3nccnc23)C1 (single isomer, unassigned) [Compound 136]
The IC50 of the first is higher: 1000 to 10000 nM for the first, under 1000 nM for the second.

OC1CCC(NC2CC(C(F)(F)F)CN(c3ccnc4nccnc34)C2)CC1 (single isomer, unassigned) [Compound 93, cis,cis-4-((1-(pyrido[2,3-b]pyrazin-8-yl)-5-(trifluoromethyl)piperidin-3-yl)amino)cyclohexanol] and C[C@H]1C[C@@H](NC(=O)C(N)C(F)(F)F)CN(c2ccnc3nccnc23)C1 (single isomer, unassigned) [Compound 114, hydrochloride] cannot be ordered by IC50: over 10000 nM for the first, over 10000 nM for the second.

OC1CCC(NC2CC(C(F)(F)F)CN(c3ccnc4nccnc34)C2)CC1 (single isomer, unassigned) [Compound 94, trans,cis-4-((1-(pyrido[2,3-b]pyrazin-8-yl)-5-(trifluoromethyl)piperidin-3-yl)amino)cyclohexanol] and C[C@H]1C[C@@H](NC(=O)CC(O)C(C)(C)C)CN(c2ccnc3nccnc23)C1 (single isomer, unassigned) [Compound 148] cannot be ordered by IC50: over 10000 nM for the first, over 10000 nM for the second.

First: C[C@H]1C[C@@H](NC(=O)C(N)C(F)(F)F)CN(c2ccc(C#N)c3nccnc23)C1 (single isomer, unassigned) [Compound 112, hydrochloride]
Second: CCC(C)C(=O)N[C@@H]1C[C@H](C)CN(c2ccc(C#N)c3nccnc23)C1 (single isomer, unassigned) [Compound 154]
The IC50 of the first is higher: 1000 to 10000 nM for the first, under 1000 nM for the second. The second is the more potent here.

C[C@H]1C[C@@H](NC(=O)C(N)C(F)(F)F)CN(c2ccc(C#N)c3nccnc23)C1 (single isomer, unassigned) [Compound 113, hydrochloride] and CCC(C)CC(=O)N[C@@H]1C[C@H](C)CN(c2ccc(C#N)c3nccnc23)C1 (single isomer, unassigned) [Compound 150] cannot be ordered by IC50: under 1000 nM for the first, under 1000 nM for the second.

C[C@H]1C[C@@H](NC2CCN(C)C2=O)CN(c2ccc(C#N)c3nccnc23)C1 (single isomer, unassigned) [Compound 124] and CCC(C)CC(=O)N[C@@H]1C[C@H](C)CN(c2ccc(C#N)c3nccnc23)C1 (single isomer, unassigned) [Compound 151] cannot be ordered by IC50: under 1000 nM for the first, under 1000 nM for the second.

C[C@H]1C[C@@H](NC2CCN(C)C2=O)CN(c2ccc(C#N)c3nccnc23)C1 (single isomer, unassigned) [Compound 125] and C[C@H]1C[C@@H](NC(=O)CC(O)C(C)(C)C)CN(c2ccc(C#N)c3nccnc23)C1 (single isomer, unassigned) [Compound 146] cannot be ordered by IC50: under 1000 nM for the first, under 1000 nM for the second.

First: C[C@H]1C[C@@H](NC(=O)CC(O)C(C)(C)C)CN(c2ccc(C#N)c3nccnc23)C1 (single isomer, unassigned) [Compound 147]
Second: C[C@H]1C[C@@H](NC(=O)CC(O)C(C)(C)C)CN(c2ccnc3nccnc23)C1 (single isomer, unassigned) [Compound 149]
The IC50 of the first is lower: under 1000 nM for the first, over 10000 nM for the second.

In the case of CCC(C)CC(=O)N[C@@H]1C[C@H](C)CN(c2ccnc3nccnc23)C1 (single isomer, unassigned) [Compound 152], the IC50 is reported as 1000 to 10000 nM.
CCC(C)CC(=O)N[C@@H]1C[C@H](C)CN(c2ccnc3nccnc23)C1 (single isomer, unassigned) [Compound 153] gave an IC50 of 1000 to 10000 nM.
